Measurements: patent US9487515B2, “Compounds modulating c-fms and/or c-kit activity and uses therefor” (Plexxikon Inc., priority 2006, dated 2016)
pIC50: −log10 of the molar value.

Tests used:
[1] = target: T1, TrkA kinase (Homo sapiens, UniProt P04629); assay: TrkA biochemical assay (AlphaScreen); conditions: 100 μM ATP
T1 construct: purchased Upstate Biotech #14-571

[2] = target: c-kit (Homo sapiens, UniProt P10721); assay: c-kit assays of Examples 40 and 41 (AlphaScreen kinase assays at 10 and 100 μM ATP, 33P-ATP filter assay, M-07e SCF-stimulated proliferation and phosphorylation)
[3] = target: MAP4K4 (HGK) (Homo sapiens, UniProt O95819); assay: HGK biochemical assay (AlphaScreen); conditions: 10 μM ATP
Method: Substrate was 10 nM biotin-ERM (T567/T564/T558, Cell Signaling, Inc., cat#1344). MAP4K4 kinase was at 0.5 ng per sample.

[4] = test system: cells with activating c-kit mutations; conditions: mutations in the catalytic region; cited from earlier work

c-kit, sequence (P10721 with tags, fused parts or gaps): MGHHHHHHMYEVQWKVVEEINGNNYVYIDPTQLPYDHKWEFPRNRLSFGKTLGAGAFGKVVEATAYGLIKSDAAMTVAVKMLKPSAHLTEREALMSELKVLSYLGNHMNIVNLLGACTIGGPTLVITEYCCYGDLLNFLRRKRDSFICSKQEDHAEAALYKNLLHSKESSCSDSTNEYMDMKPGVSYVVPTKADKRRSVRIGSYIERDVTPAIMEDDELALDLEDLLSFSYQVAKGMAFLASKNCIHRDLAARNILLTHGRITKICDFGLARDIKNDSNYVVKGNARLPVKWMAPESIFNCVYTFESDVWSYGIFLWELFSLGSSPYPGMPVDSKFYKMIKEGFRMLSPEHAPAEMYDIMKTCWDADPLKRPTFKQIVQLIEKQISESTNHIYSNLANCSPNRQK
MAP4K4 (HGK), sequence (O95819 whole entry): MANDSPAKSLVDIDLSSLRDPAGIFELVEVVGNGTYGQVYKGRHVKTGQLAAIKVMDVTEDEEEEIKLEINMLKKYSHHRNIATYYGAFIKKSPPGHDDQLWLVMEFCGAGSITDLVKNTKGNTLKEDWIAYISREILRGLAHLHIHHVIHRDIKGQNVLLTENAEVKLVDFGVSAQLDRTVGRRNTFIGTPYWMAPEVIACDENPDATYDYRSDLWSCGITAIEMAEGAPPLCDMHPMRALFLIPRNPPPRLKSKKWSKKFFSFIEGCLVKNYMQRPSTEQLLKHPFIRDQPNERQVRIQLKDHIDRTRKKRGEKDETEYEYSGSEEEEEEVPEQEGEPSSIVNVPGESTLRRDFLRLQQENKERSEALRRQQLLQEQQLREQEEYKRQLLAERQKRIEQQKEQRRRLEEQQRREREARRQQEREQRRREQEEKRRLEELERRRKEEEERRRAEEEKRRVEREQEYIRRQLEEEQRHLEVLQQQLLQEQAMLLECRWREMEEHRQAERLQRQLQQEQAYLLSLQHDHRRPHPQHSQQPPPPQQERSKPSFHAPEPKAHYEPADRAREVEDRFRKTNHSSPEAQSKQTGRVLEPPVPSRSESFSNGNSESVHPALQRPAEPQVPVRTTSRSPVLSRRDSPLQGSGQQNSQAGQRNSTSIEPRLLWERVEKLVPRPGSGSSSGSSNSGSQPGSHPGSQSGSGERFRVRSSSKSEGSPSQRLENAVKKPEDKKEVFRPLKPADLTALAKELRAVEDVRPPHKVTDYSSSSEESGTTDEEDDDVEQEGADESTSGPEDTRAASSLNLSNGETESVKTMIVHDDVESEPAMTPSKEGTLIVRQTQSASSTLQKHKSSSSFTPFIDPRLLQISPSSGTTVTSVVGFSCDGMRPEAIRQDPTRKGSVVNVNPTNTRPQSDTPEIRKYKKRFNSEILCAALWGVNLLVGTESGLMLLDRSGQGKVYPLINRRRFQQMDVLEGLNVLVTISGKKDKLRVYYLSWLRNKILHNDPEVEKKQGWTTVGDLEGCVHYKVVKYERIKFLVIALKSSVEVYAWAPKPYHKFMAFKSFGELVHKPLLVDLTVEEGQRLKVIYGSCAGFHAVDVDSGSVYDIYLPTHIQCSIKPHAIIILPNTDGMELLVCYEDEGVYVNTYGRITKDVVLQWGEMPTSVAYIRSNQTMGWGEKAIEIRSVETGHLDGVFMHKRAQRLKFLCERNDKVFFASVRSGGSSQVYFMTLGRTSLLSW
T1 sequence (P04629 33-796): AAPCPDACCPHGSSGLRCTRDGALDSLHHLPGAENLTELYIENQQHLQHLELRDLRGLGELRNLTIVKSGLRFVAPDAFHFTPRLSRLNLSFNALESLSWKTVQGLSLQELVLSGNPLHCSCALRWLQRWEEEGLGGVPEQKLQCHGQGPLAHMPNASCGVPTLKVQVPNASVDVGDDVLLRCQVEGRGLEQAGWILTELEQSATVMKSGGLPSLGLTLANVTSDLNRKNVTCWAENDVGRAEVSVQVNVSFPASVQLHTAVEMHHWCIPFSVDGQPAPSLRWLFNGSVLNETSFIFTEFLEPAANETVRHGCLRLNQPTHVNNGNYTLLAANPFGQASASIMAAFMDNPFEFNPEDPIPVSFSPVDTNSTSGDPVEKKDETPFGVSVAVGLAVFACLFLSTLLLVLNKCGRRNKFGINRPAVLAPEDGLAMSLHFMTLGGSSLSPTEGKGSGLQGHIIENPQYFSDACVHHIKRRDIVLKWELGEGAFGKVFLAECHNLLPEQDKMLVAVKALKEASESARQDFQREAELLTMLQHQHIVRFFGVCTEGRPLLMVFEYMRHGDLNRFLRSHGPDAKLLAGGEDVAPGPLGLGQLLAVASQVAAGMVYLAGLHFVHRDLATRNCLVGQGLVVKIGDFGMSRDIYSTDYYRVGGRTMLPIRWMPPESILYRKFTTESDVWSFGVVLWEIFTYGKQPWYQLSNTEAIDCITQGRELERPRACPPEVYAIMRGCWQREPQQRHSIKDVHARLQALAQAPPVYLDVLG

| Structure (SMILES) | pIC50 [1] | pIC50 [2] | pIC50 [3] | inhibition of cells with c-kit mutations [4] |
| --- | --- | --- | --- | --- |
| Cc1nn(C(=O)NCCc2ccc(F)cc2)c(C)c1Cc1c[nH]c2ncc(Cl)cc12 [P-0157, 4-(5-Chloro-1H-pyrrolo[2,3-b]pyridin-3-ylmethyl)-3,5-dimethyl-pyrazole-1-carboxylic acid [2-(4-fluoro-phenyl)-ethyl]-amide] | > 6.00 | > 6.00 | – | – |
| Cc1cccc(CNc2nc(Cl)c(Cc3c[nH]c4ncccc34)s2)n1 [P-0171, [4-Chloro-5-(1H-pyrrolo[2,3-b]pyridin-3-ylmethyl)-thiazol-2-yl]-(6-methyl-pyridin-2-ylmethyl)-amine] | > 6.00 | > 6.00 | – | – |
| Cn1cc(-c2cnc3[nH]cc(Cc4ccc(NCc5ccc(C(F)(F)F)nc5)nc4Cl)c3c2)cn1 [P-0179, {6-Chloro-5-[5-(1-methyl-1H-pyrazol-4-yl)-1H-pyrrolo[2,3-b]pyridin-3-ylmethyl]-pyridin-2-yl}-(6-trifluoromethyl-pyridin-3-ylmethyl)-amine] | > 6.00 | > 6.00 | > 6.00 | – |
| Cn1cc(-c2cnc3[nH]cc(Cc4cc(NCc5ccc(F)cc5)nn4C)c3c2)cn1 [P-0180, (4-Fluoro-benzyl)-{1-methyl-5-[5-(1-methyl-1H-pyrazol-4-yl)-1H-pyrrolo[2,3-b]pyridin-3-ylmethyl]-1H-pyrazol-3-yl}-amine] | > 6.00 | > 6.00 | – | – |
| Clc1ccc(CNc2nc(Cl)c(Cc3c[nH]c4ncc(Cl)cc34)s2)nc1 [P-0203, [4-Chloro-5-(5-chloro-1H-pyrrolo[2,3-b]pyridin-3-ylmethyl)-thiazol-2-yl]-(5-chloro-pyridin-2-ylmethyl)-amine] | – | > 6.00 | > 6.00 | – |
| Fc1ccc(CNc2nc(Cl)c(Cc3c[nH]c4ncccc34)s2)nc1 [P-0206, [4-Chloro-5-(1H-pyrrolo[2,3-b]pyridin-3-ylmethyl)-thiazol-2-yl]-(5-fluoro-pyridin-2-ylmethyl)-amine] | – | > 6.00 | > 6.00 | – |
| Fc1ccc(CNc2nc(Cl)c(Cc3c[nH]c4ncc(Cl)cc34)s2)nc1 [P-0240, [4-Chloro-5-(5-chloro-1H-pyrrolo[2,3-b]pyridin-3-ylmethyl)-thiazol-2-yl]-(5-fluoro-pyridin-2-ylmethyl)-amine] | – | > 6.00 | > 6.00 | – |
| Cc1cccc(CNc2nc(Cl)c(Cc3c[nH]c4ncc(Cl)cc34)s2)n1 [P-0255, [4-Chloro-5-(5-chloro-1H-pyrrolo[2,3-b]pyridin-3-ylmethyl)-thiazol-2-yl]-(6-methyl-pyridin-2-ylmethyl)-amine] | – | > 6.00 | > 6.00 | – |
| FC(F)(F)Oc1ccccc1CNc1ncc(Cc2c[nH]c3ncccc23)cn1 [P-0303, [5-(1H-Pyrrolo[2,3-b]pyridin-3-ylmethyl)-pyrimidin-2-yl]-(2-trifluoromethoxy-benzyl)-amine] | > 6.00 | > 6.00 | – | – |
| Fc1cncc(CNc2ccc(Cc3c[nH]c4ncc(Cl)cc34)cn2)c1 [P-0324, [5-(5-chloro-1H-pyrrolo[2,3-b]pyridin-3-ylmethyl)-pyridin-2-yl]-(5-fluoro-pyridin-3-ylmethyl)-amine] | – | > 6.00 | > 6.00 | – |
| Cc1cnc2[nH]cc(Cc3ccc(NCc4c(F)cccc4F)nc3)c2c1 [P-0341, (2,6-Difluoro-benzyl)-[5-(5-methyl-1H-pyrrolo[2,3-b]pyridin-3-ylmethyl)-pyridin-2-yl]-amine] | – | > 6.00 | > 6.00 | – |
| O=C(Nc1cccc(F)c1)Nc1ccc(Cc2c[nH]c3ncccc23)cn1 [P-0412, 1-(3-fluoro-phenyl)-3-[5-(1H-pyrrolo[2,3-b]pyridin-3-ylmethyl)-pyridin-2-yl]-urea] | > 6.00 | > 6.00 | – | – |
| Cc1ccc(NC(=O)c2ccc(CN3CCN(C)CC3)cc2)cc1Nc1nccc(-c2cccnc2)n1 [STI571] | – | – | – | did not inhibit the cells |
